Like-named read-outs stand apart in the source and are kept apart here.
Key:
Type in all cases: biochemical
[1] = target: T1, MIF2 (Homo sapiens, UniProt P30046); experiment: MIF2 tautomerase activity inhibition (PP substrate, UV 300 nm)
T1 construct: made in house; host or cells: E. coli BL21(DE3), pET20b(+)
Experimental: 2. Preparation of recombinant MIF and MIF2. […]
Purity of obtained protein was tested by SDS-PAGE and Coomassie staining. […]
(§1) The detailed procedure to produce recombinant human MIF2 was reported in our previous publications.[7] Gene sequences of the human MIF2 gene (Invitrogen) was adapted to bacterial expression. After subcloning into a pET20b(+) expression vector, IPTG-induced expression was performed in E.coli strain BL21(DE3). MIF2 proteins were overproduced overnight and harvested cells were resuspended and sonicated. The soluble fraction was puriﬁed using a Q sepharose column (GE Healthcare) with a gradient of NaCl. The fractions containing MIF2 were brought to 1.7 M ammonium sulfate and loaded on a phenyl sepharose column (GE Healthcare) and eluted with a gradient to 0 M ammonium sulfate in a 20 mM sodium phosphate buffer, pH 8.0. Finally, the proteins were purified by size exclusion chromatography on a Superdex75 column (GE Healthcare) in 20 mM sodium phosphate buffer, pH 8.0, with an elution volume characteristic for trimeric MIF2. The collected protein was concentrated using a VivaSpin centrifugation column with a molecular weight cut off at 5000 D a (Sartorius Stedim Biotech GmbH). Purified proteins were aliquoted, snap frozen in liquid nitrogen, and stored at –80 °C. Purity of obtained protein was tested by SDS-PAGE and coomassie staining. The concentration of protein was determined using the Bradford a ssay.
(§2) 3.1 MIF and MIF2 Inhibition
(§3) The protocol for measuring inhibition of MIF or MIF2 tautomerase enzyme activity was described previously.[5] 500 nM MIF solution (180 µL) or 100 nM MIF2 solution (180 µL) in boric acid buffer ([…], pH 6.2) was mixed with 20 mM EDTA solution (10 µL) in demineralized water. A solution of the desired compound dissolved in DMSO (10 µL) or blank DMSO (10 µL) was added. The resulting mixture was preincubated at room temperature for 10 minutes.
(§4) Subsequently, 50 µL of this mixture was mixed with 50 µL of a 1 mM 4-HPP solution for MIF or 1 mM PP solution for MIF2 in ammonium acetate buffer (50 mM, pH 6.0). Thereafter, MIF or MIF2 tautomerase activity was monitored by measuring the increase of UV absorbance at 306 nm for MIF or 300 nm for MIF2 over time. The MIF or MIF2 tautomerase activity of the mixture with blank DMSO dilution was set to 100% enzyme activity. Noncatalyzed conversion of the substrate in the mixture without MIF or MIF2 was set to 0%. The data acquired from the first 3 minutes of the measurement were used to calculate the initial conversion speed. All experiments were performed in triplicate and data processing was done using the program […]
(§5) Table S1. IC50 values (10 min) and inactivation parameters of synthesized compounds.
(§6) (1 picture or pasted object on this page, not shown here)

[2] = target: T2, MIF (Homo sapiens, UniProt P14174); experiment: Kitz-Wilson inactivation kinetics on MIF tautomerase
T2 construct: His tag (C); made in house; host or cells: Escherichia coli BL21 (DE3), pET-20b(+)
T2 sequence (P14174 2-115 limits assumed): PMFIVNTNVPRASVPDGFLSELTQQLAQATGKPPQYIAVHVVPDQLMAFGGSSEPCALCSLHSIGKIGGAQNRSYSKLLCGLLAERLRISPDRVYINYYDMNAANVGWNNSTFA
Experimental: (§7) In order to derive the kinetic parameters for inactivation of MIFand MIF2, we employed the approach described by Kitz and Wilson. Briefly, four different concentrations of the inhibitor with four different pre-incubation times were selected. The assay conditions are described above with the difference in incubation time.
(§8) For the data analysis, the pre-incubation times for the different concentration of the inhibitor versus the remaining enzyme activity were plotted, so from the linear regression the slope of each concentration of the probe was obtained ( Table S3). Then the 1/slope versus 1/[inhibitor] were plotted (Figure 4) and from the linear regression line ki was derived from the 1/y -intercept and derived from the slope times the ki as described by Kitz and Wilson.
For example, for the probe 8 the equation is: Y = 7,476*X + 5,069
So, the kinact and the KI values are: kinact =1/5,069 =0.20 min-1
(also on this page, place not known: -1 0 1 2 3 0 50 100 log [FM011] (µM) DDT (%) -1 0 1 2 3 0 50 100 log [ZP308] (µM) DDT activity (%) 0.0 0.5 1.0 1.5 2.0 0 50 100 log [ZP307] (µM) DDT activity (%) 1.4 1.6 1.8 2.0 2.2 0 50 100 log [FM031] (µM) DDT activity (%) pre -incubation cond itions pre -incubation activity o f (Table 1/y-intercept) […]
(§9) Table S4. Kinetics studies results.
(§10) Time-dependent inhibition Kitz and Wilson curve […]
ln (MIF tautomerase activity %)
Time-dependent inhibition on MIF Y = 7,476*X + 5,069
Time-dependent inhibition on MIF Y = 12,07*X + 4,234 […]
ln (MIF2 tautomerase activity %)
(§11) Time-dependent inhibition on MIF2 Y = 299,5*X + 11,14 […]

[3] = target: T2, MIF; experiment: MIF tautomerase activity inhibition (4-HPP substrate, UV 306 nm)
Experimental: 2. Preparation of recombinant MIF and MIF2.
The detailed procedure to produce C-terminal His-tagged recombinant human MIF was reported in our previous publications.[1,4,5] rhMIF was expressed through transforming a pET-20b(+) plasmid containing the target gene into Escherichia coli BL21 (DE3) according to literature procedures.[6] Overexpression was performed and cells were collected and sonicated.
The obtained supernatant was applied to a medium pressure chromatography system (Biologic Duoflow) equipped with a His trap HP (5 mL) column with detection at 280 nm for the eluent.
The column was washed with a binding buffer containing 50 mM Tris and 10% glycerol at pH 7.4 and eluted with elution buffer containing 500 mM imidazole, 50 mM Tris, 10% glycerol at pH 7.4. The pure fractions (as judged by SDS-PAGE) were pooled and subjected to a PD-10 column (GE healthcare) that was equilibrated with PBS buffer at pH 7.4 to remove the high concentration of imidazole. The collected MIF solution was divided into 50 µL aliquots and stored at –80 °C. Purity of obtained protein was tested by SDS-PAGE and Coomassie staining.
The concentration of protein was determined using the Bradford assay.
as §1, §2, §3, §4, §5, §6

[4] = target: T1, MIF2; experiment: hgDNA cleavage by MIF2 in presence of tautomerase inhibitors; conditions: Figure S3/S7
Experimental: (§12) 7. Nuclease activity of MIF and MIF2.
(§13) Human genomic DNA was obtained from RPE-1 cells by DNA extraction following the protocol described in literature.[10] The nuclease assays were conducted by following the procedure described previously.[8] hgDNA (200 ng/reaction) was incubated with MIF or MIF2 in final concentration of 0.62 -20 µM as indicated in 10Mm Tris-HCl buffer (pH 7.0) containing 10mM MgCl2 (B and C) or specific buffer as indicated at 37°C for two hours. The reaction was terminated with loading buffer containing 10mM EDTA and incubation on ice. The human genomic DNA samples were immediately separated on a 1% agarose gel containing SYBR Safe (ThermoFisher) in 0.5 X TBE buffer with initial switch time of 1.5 s and a final switch time of 3.5 s for 12 hours at 6 V/cm. DNA was further detected by chemiluminescence.
(§14) Figure S7. hgDNA cleavage activity of MIF and MIF2. (A) The MIF2 nuclease activity is Mg 2+- […]
(§15) BITC is a covalent inhibitor that can form covalent bond with the N-terminal proline.[11] (C) […]
as §6

[5] = target: T2, MIF; experiment: hgDNA cleavage by MIF in presence of tautomerase inhibitors; conditions: Figure S3/S7
Experimental: as §12, §13, §14, §15, §6

[6] = target: T1, MIF2; experiment: Kitz-Wilson inactivation kinetics on MIF2 tautomerase; conditions: Kitz-Wilson analysis, ±SD, n=3
Experimental: as §7, §8
For example, for the probe 8 the equation is: Y = 7,476*X + 5,069 […]
as §9, §10
ln (MIF tautomerase activity %) […]
as §11

T1 sequence (P30046 2-118 limits assumed): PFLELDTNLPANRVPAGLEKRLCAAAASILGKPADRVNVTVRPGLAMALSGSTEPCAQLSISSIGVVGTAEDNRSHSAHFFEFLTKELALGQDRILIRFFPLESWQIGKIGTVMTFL

`O=C(NCCNc1ccc([N+](=O)[O-])c2nonc12)c1ccc(-c2cc(I)ncn2)cc1` [Compound 8] was tested, and the “improvement of potency for MIF2 inhibition compared to parental inhibitor 2” value [1] was 2–6 factor, the IC50 ([1]; Table 2, 10 min pre-incubation, ±SD, n=3, read-out: IC50 MIF2) was 20 ± 2.2 µM and the “KI on MIF relative to IC50” value ([2]; KI higher than IC50) was “about 10 times”. The KI (inactivation) ([2]; Kitz-Wilson analysis, ±SD, n=3, read-out: KI MIF (inhibition constant)) was 1.5 ± 0.2 µM, the kinact ([2]; Kitz-Wilson analysis, ±SD, n=3, read-out: kinact MIF (rate of enzyme inactivation) (converted)) was 0.00333 s⁻¹ and the IC50 ([3]; Table 2, 10 min pre-incubation, ±SD, n=3, read-out: IC50 MIF) was 0.27 ± 0.085 µM. For the same compound, the IC50 ([3]; approximate, read-out: IC50 on MIF) was about 0.2 µM, the “effect on DNA cleavage by MIF2” value [4] was “could not rescue DNA cleavage” and the “effect on DNA cleavage by MIF” value [5] was “could not rescue DNA cleavage”. The “kinact MIF2 (rate of enzyme inactivation)” value [6] was 0.088 ± 0.012 min⁻¹, the KI (inactivation) ([6]; read-out: KI MIF2 (inhibition constant)) was 26 ± 3.2 µM and the kinact ([6]; read-out: kinact MIF2 (rate of enzyme inactivation)) was 0.001 to 0.0015 s⁻¹.
